System: FcgRIIA on monocytes
Assay: FcgRIIA and CD11b on monocytes (PBMCs with R848, neutrophils or neutrophil supernatant)
Type: cell-based, human
Description: Since we observed prominent protease-mediated shedding of FcgRIIA in neutrophils, we next asked if activated neutrophils could induce shedding of FcgRIIA in other immune cells. PBMCs were co-incubated with neutrophils (PMNs) in the presence of R848 and a pan-protease inhibitor. Levels of FcgRIIA on monocytes (CD14+), and pDCs (CD304+) were determined by flow cytometry and expressed as FcgRIIA (% of control) as compared to PBMCs incubated in medium in absence of neutrophils. […]
To determine if the loss of monocyte FcgRIIA was mediated through cell-cell interactions or due to a soluble neutrophil-derived factor, we added supernatant from TLR7/8-activated neutrophils to monocytes. Specifically, neutrophil supernatant, derived from non-stimulated (no, n=5) or R848-stimulated (R848, n=9) neutrophils, were added to monocytes in presence of indicated inhibitors (CMK; furin inhibitor, n=5, and Pan; pan-protease inhibitor, n=5) and monocyte FcgRIIA levels analyzed by flow cytometry. […]
Neutrophils and PBMCs were incubated at a 2:1 ratio (500,000 vs 250,000 cells) with the pan-protease inhibitor (1×) for 30 minutes followed by R848 (2 μg/mL) for an additional 60 minutes and analyzed for FcgR levels by flow cytometry. […]

## CCOCc1nc2c(N)nc3ccccc3c2n1CC(C)(C)O [R848]
R848
  monocyte cell surface CD11b: up-regulation of cell surface CD11b
Flow cytometry
  monocyte cell surface FcgRIIA levels: unchanged
